Laboratory results as given in patent US20130090329A1, “Methods and Compositions for the Treatment of Psychotic Disorders Through the Identification of the Olanzapine Poor Response Predictor Genetic Signature” (SUREGENE, LLC, priority 2011, published 2013).
Marks after values point to notes of the source that are not given here.

Key:
[1] = tested on: patients suffering from schizophrenia and related disorders; assay: CATIE study: worsening of symptoms (LOCF delta PANSS ≧0%) by OPRP status; format: in vivo, human; settings: for Worsening: delta PANSS ≧0%
Experimental: (§1) A total of 738 subjects consented to provide DNA for genetic study. […] Only retrospective genetic analyses, judged to be exempt from human studies requirements by an IRB, were conducted in the current study. For the genetic analyses presented herein, the inventors combined and evaluated drug response data for both Phase I and Phase IB of the CATIE study. All tested patients were studied using well established clinical endpoints comparing baseline, intermediate, and last observation carried forward (LOCF) for the PANSS scores using CATIE data. LOCF analysis is a commonly used clinical endpoint for clinical trials for neuropsychiatric drugs, with particular changes in PANSS scores being used to indicate clinically significant response (Leucht et al., 2009).
The inventors also examined the impact of the OPRP status on whether patients' symptoms actually got worse when treated with olanzapine. This is an important safety consideration for antipsychotic drugs response, and failure of a drug to display the desired clinical response on a specific subset of patients could impact the drug label, being contraindicated for a particular subset of patients (see Example 5: “Risk Management Involving the OPRP Genetic Test). […]

[2] = tested on: patients suffering from schizophrenia and related disorders; assay: CATIE study: percent change in total PANSS from baseline to LOCF, segmented by OPRP genetic signature status; format: in vivo, human; settings: for Effect size (mean difference / standard deviation): olanzapine OPRP positive versus labelled drug OPRP positive
Description: Genotype and phenotype data for the CATIE trial were recently made available to qualified researchers through the NIMH Center for Collaborative Genetic Studies on Mental Disorders. The sample consisted of a total of 738 patients. For the present study, the inventors assigned OPRP status to 628 subjects, including 411 subjects of self-reported European ancestry and 217 subjects of self-reported African ancestry. Further details on the patient population are described in the study by Sullivan and coworkers (Sullivan et al., 2008). The CATIE SNP genotype data evaluated included a total of 492,900 SNPs located throughout the genome.
The design of the CATIE study has been described in detail by others (Lieberman et al., 2005; Stroup et al., 2003). […] Subjects that failed Phase I treatment with the typical antipsychotic perphenazine were treated differently than those subjects that failed phase I treatment with an atypical antipsychotic. Instead of entering into Phase II of the trial, subjects who switched from perphenazine entered Phase IB. […] Subjects who failed Phase IB then entered Phase II.
as §1
Using the clinical data from the CAIE trial, the inventors derived several different metrics used for quantifying response in clinical trials of antipsychotic medications. The most commonly used psychometric instrument is the Positive and Negative Syndrome Scale (PANSS), a 30-item semi-quantitative instrument scored by clinical professionals (Kay et al., 1987). The greater the decrease in PANSS score, the better the clinical response. The most direct measure of clinical response is absolute change in PANSS score. In addition to absolute change, the improvement is often reported as a percentage change from baseline PANSS score.
To examine the relationship of genotypes to drug response the inventors used the publically available PLINK software (Purcell et al., 2007; available on the world wide web at pngu.mgh.harvard.edu/purcell/plink/) and Helix tree (Version 6.4.1; Golden Helix, Bozeman, Mont.). The inventors used Last observation Carry Forward (LOCF) delta PANSS values as a measure of response to antipsychotic treatment. […] The inventors refined the test further by conducting association analysis on using only those subjects that comprised the TT genotype of rs11960832.
As mentioned previously, the mean change in absolute or percent PANSS provides an important measure of efficacy in patients undergoing antipsychotic treatments. Indeed, many pivotal trials in the psychosis field used absolute and/or percentage change in PANSS Score as the primary endpoint (Leucht et al., 2009).

[3] = tested on: patients suffering from schizophrenia and related disorders; assay: CATIE study: categorical responders (change in total PANSS ≦−10%, LOCF) by OPRP status; format: in vivo, human; settings: for Responders: change in total PANSS ≦−10%
Experimental: A total of 738 subjects consented to provide DNA for genetic study. Details regarding SNP genotyping and quality control have been recently published (Sullivan et al., 2008). Only retrospective genetic analyses, judged to be exempt from human studies requirements by an IRB, were conducted in the current study. For the genetic analyses presented herein, the inventors combined and evaluated drug response data for both Phase I and Phase IB of the CATIE study. All tested patients were studied using well established clinical endpoints comparing baseline, intermediate, and last observation carried forward (LOCF) for the PANSS scores using CATIE data. LOCF analysis is a commonly used clinical endpoint for clinical trials for neuropsychiatric drugs, with particular changes in PANSS scores being used to indicate clinically significant response (Leucht et al., 2009). […] As described above CATIE patients were studied using well established clinical endpoints comparing baseline, intermediate, and last observation carried forward (LOCF) for the PANSS scores.

psychopathology (PANSS) [4] = settings: meta-analysis, population not segmented by OPRP; negative = greater reduction in PANSS; cited from earlier work
psychopathology (PANSS) [5] = settings: weighted mean difference in PANSS score (absolute); negative = olanzapine superior; cited from earlier work
psychopathology = settings: meta-analysis, Davis et al. (2003); cited from earlier work
[6] = Caucasian patients, OPRP Negative, LOCF
[7] = Caucasian patients, OPRP Positive, LOCF

OCCOCCN1CCN(C2=Nc3ccccc3Sc3ccccc32)CC1 [Quetiapine]
Number of individuals with delta PANSS ≦0% (non-worsening) [1, 6]: 85 | Number of individuals with delta PANSS ≧0% (worsening symptoms) [1, 6]: 62 | Worsening ([1]; Caucasian patients, OPRP Negative): 42%* | Number of individuals with delta PANSS ≦0% (non-worsening) [1, 7]: 2 | Number of individuals with delta PANSS ≧0% (worsening symptoms) [1, 7]: 7 | Worsening ([1]; Caucasian patients, OPRP Positive): 78% | Number of individuals with delta PANSS ≦0% (non-worsening) ([1]; OPRP Negative, LOCF): 95 | Number of individuals with delta PANSS ≧0% (worsening symptoms) ([1]; OPRP Negative, LOCF): 62 | Worsening ([1]; OPRP Negative, LOCF): 42%^+++ | Number of individuals with delta PANSS ≦0% (non-worsening) ([1]; OPRP Positive, LOCF): 9 | Number of individuals with delta PANSS ≧0% (worsening symptoms) ([1]; OPRP Positive, LOCF): 9 | Worsening ([1]; OPRP Positive, LOCF): 50% | Response of OPRP positive group compared with OPRP negative group (percent change in PANSS) ([2]; Caucasian subjects, CATIE): responded worse | DELTA PANSS % (mean change in PANSS score from baseline to LOCF) ([2]; Caucasian subjects, OPRP Negative): −0.6% | DELTA PANSS % (mean change in PANSS score from baseline to LOCF) ([2]; Caucasian subjects, OPRP Positive): 12% | DELTA PANSS % (mean change in PANSS score from baseline to LOCF) ([2]; OPRP Negative subjects, CATIE Phase I and IB, more negative = greater improvement): −3.2^++++ % | DELTA PANSS % (mean change in PANSS score from baseline to LOCF) ([2]; OPRP Positive subjects, CATIE Phase I and IB, more negative = greater improvement): −1.2% | Mean difference between olanzapine and labelled atypical antipsychotic, CATIE OPRP− ([2]; OPRP negative subjects, delta PANSS, negative = olanzapine superior): −8.4 | Mean difference in delta PANSS: olanzapine-treated OPRP positive group minus comparator group ([2]; comparator = OPRP positive subjects treated with the labelled drug, positive = poorer response to olanzapine): 5.5 | Mean difference between olanzapine and labelled atypical antipsychotic, CATIE unsegemented ([2]; delta PANSS, negative = olanzapine superior): −6.2 | Effect size (mean difference / standard deviation) ([2]; CATIE): 0.3^b | Effect size (mean difference / standard deviation) ([2]; CATIE, listed as quetiapine): 0.3 | Number of individuals with change in total PANSS ≦−10% (responders) ([3]; OPRP Negative): 48 | Number of individuals with change in total PANSS ≧−10% (non-responders) ([3]; OPRP Negative): 99 | Responders ([3]; OPRP Negative): 33%^+++ | Number of individuals with change in total PANSS ≦−10% (responders) ([3]; OPRP Positive): 4 | Number of individuals with change in total PANSS ≧−10% (non-responders) ([3]; OPRP Positive): 14 | Responders ([3]; OPRP Positive): 22% | Effect Size vs. Placebo (psychopathology (PANSS) [4]): −0.42 | Mean difference between olanzapine and labelled atypical antipsychotic, Meta-analysis (psychopathology (PANSS) [5]): −3.7 | Effect Size vs. FGA (first generation antipsychotics) (psychopathology): 0.01
